Patent US10517889B2, “Modulators of SMAD7 expression” (Ionis Pharmaceuticals, Inc., priority 2017, dated 2019)
Strand notation (5' to 3'): a small letter for the sugar, then the base; units joined by * are phosphorothioate-linked, units joined directly phosphodiester-linked; [ ] holds rarer units or linkages, { } end groups; capitals alone tell only the bases. k = constrained ethyl (cEt); [5mC] = 5-methylcytosine; d = 2'-deoxy (DNA)

tested on: human SMAD7 mRNA; test: Antisense inhibition of human SMAD7 mRNA expression in Hep3B cells by 3-10-3 cEt gapmers, 10,000 nM, electroporation (Example 2); format: cell-based; conditions: Hep3B cells, electroporation with 10,000 nM antisense oligonucleotide, approximately 24 hours, SMAD7 mRNA by RT-PCR (RTS5062), relative to untreated control cells
Summary of the method: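 Percent inhibition of SMAD7 mRNA, relative to untreated cells, after ~24 h exposure of electroporated Hep3B cells to 10,000 nM cEt gapmer; levels by qRT-PCR, corrected for total RNA.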

In order of falling “% Inhibition” value:
1. 830042 (antisense k[5mC]*kA*kG*dG*dT*dT*dA*dA*dT*d[5mC]*dA*d[5mC]*dT*kT*k[5mC]*k[5mC]) [compound 830042]  64%
2. 830046 (kT*k[5mC]*k[5mC]*dG*dA*dT*dT*dG*dG*d[5mC]*dA*dG*dG*kT*kT*kA; antisense) [compound 830046]  60%
3. 830022 (antisense kG*kG*k[5mC]*dT*dG*d[5mC]*dA*dG*dA*dG*dT*dA*dT*kG*kG*kG) [compound 830022]  59%
4. 830023 (antisense kT*k[5mC]*kA*d[5mC]*dA*dT*dG*d[5mC]*dT*dT*dT*dG*d[5mC]*kG*kG*kG) [compound 830023]  57%
5. 830048 (kT*kT*kT*d[5mC]*d[5mC]*dG*dA*dT*dT*dG*dG*d[5mC]*dA*kG*kG*kT; antisense) [compound 830048]  57%
6. 830055 (kT*kT*kG*dG*dG*dT*dG*dA*dG*dT*dA*dA*d[5mC]*k[5mC]*kA*kG; antisense) [compound 830055]  57%
7. 830015 (antisense kG*k[5mC]*kT*dG*dG*dT*dG*d[5mC]*d[5mC]*dA*dG*dT*d[5mC]*kT*k[5mC]*kA) [compound 830015]  56%
8. 830029 (antisense kT*k[5mC]*kA*d[5mC]*dT*d[5mC]*d[5mC]*dA*d[5mC]*dT*d[5mC]*dA*d[5mC]*k[5mC]*kG*kA) [compound 830029]  56%
9. 830041 (antisense kT*k[5mC]*kA*d[5mC]*dT*dT*d[5mC]*d[5mC]*dT*dA*dT*dT*dG*kG*k[5mC]*kT) [compound 830041]  56%
10. 830036 (antisense kT*kA*kT*dT*dG*dG*d[5mC]*dT*dG*dA*dT*d[5mC]*dT*kG*kG*kA) [compound 830036]  52%
11. 830039 (antisense kT*kT*k[5mC]*d[5mC]*dT*dA*dT*dT*dG*dG*d[5mC]*dT*dG*kA*kT*k[5mC]) [compound 830039]  51%
12. 830038 (antisense k[5mC]*k[5mC]*kT*dA*dT*dT*dG*dG*d[5mC]*dT*dG*dA*dT*k[5mC]*kT*kG) [compound 830038]  50%
13. 830035 (antisense kA*kT*kT*dG*dG*d[5mC]*dT*dG*dA*dT*d[5mC]*dT*dG*kG*kA*kG) [compound 830035]  48%
14. 830054 (kT*kG*kG*dG*dT*dG*dA*dG*dT*dA*dA*d[5mC]*d[5mC]*kA*kG*k[5mC]; antisense) [compound 830054]  48%
15. 830045 (k[5mC]*k[5mC]*kG*dA*dT*dT*dG*dG*d[5mC]*dA*dG*dG*dT*kT*kA*kA; antisense) [compound 830045]  47%
16. 830043 (kT*kT*kG*dG*d[5mC]*dA*dG*dG*dT*dT*dA*dA*dT*k[5mC]*kA*k[5mC]; antisense) [compound 830043]  45%
17. 830031 (antisense kT*kA*k[5mC]*d[5mC]*dT*dA*dA*dT*dG*dT*d[5mC]*dA*dA*k[5mC]*kA*k[5mC]) [compound 830031]  44%
18. 830040 (antisense k[5mC]*kA*k[5mC]*dT*dT*d[5mC]*d[5mC]*dT*dA*dT*dT*dG*dG*k[5mC]*kT*kG) [compound 830040]  44%
19. 830049 (kG*kT*kT*dT*d[5mC]*d[5mC]*dG*dA*dT*dT*dG*dG*d[5mC]*kA*kG*kG; antisense) [compound 830049]  43%
20. 830021 (antisense kG*kG*kG*dA*dA*dA*dG*dG*d[5mC]*d[5mC]*d[5mC]*dA*dA*k[5mC]*kA*kG) [compound 830021]  42%
21. 830047 (kT*kT*k[5mC]*d[5mC]*dG*dA*dT*dT*dG*dG*d[5mC]*dA*dG*kG*kT*kT; antisense) [compound 830047]  42%
22. 830057 (k[5mC]*kG*kT*dT*dT*dT*dG*dG*dG*dT*dG*dA*dG*kT*kA*kA; antisense) [compound 830057]  42%
23. 830024 (antisense kT*kG*kT*dA*dA*dA*dT*d[5mC]*dG*dA*dA*dA*dG*k[5mC]*kA*kA) [compound 830024]  40%
24. 830056 (kG*kT*kT*dT*dT*dG*dG*dG*dT*dG*dA*dG*dT*kA*kA*k[5mC]; antisense) [compound 830056]  40%
25. 830050 (kA*kG*kT*dT*dT*d[5mC]*d[5mC]*dG*dA*dT*dT*dG*dG*k[5mC]*kA*kG; antisense) [compound 830050]  39%
26. 830063 (kT*k[5mC]*k[5mC]*d[5mC]*dT*dA*d[5mC]*d[5mC]*dA*d[5mC]*d[5mC]*d[5mC]*d[5mC]*kT*kG*kT; antisense) [compound 830063]  37%
27. 830030 (antisense kA*k[5mC]*k[5mC]*dT*dA*dA*dT*dG*dT*d[5mC]*dA*dA*d[5mC]*kA*k[5mC]*kT) [compound 830030]  36%
28. 830032 (antisense kG*k[5mC]*kT*dA*d[5mC]*d[5mC]*dT*dA*dA*dT*dG*dT*d[5mC]*kA*kA*k[5mC]) [compound 830032]  35%
29. 830052 (kG*kA*kG*dT*dA*dA*d[5mC]*d[5mC]*dA*dG*d[5mC]*dT*dG*kT*k[5mC]*kT; antisense) [compound 830052]  35%
30. 830016 (antisense kG*kG*kT*dG*d[5mC]*d[5mC]*d[5mC]*dA*dA*d[5mC]*d[5mC]*d[5mC]*dT*kT*k[5mC]*kA) [compound 830016]  32%
31. 830017 (antisense kA*kG*kG*d[5mC]*dG*dG*dA*dA*dG*dG*dA*d[5mC]*dT*kT*kG*k[5mC]) [compound 830017]  30%
32. 830034 (antisense kG*kG*k[5mC]*dT*dG*dA*dT*d[5mC]*dT*dG*dG*dA*dG*kA*kA*k[5mC]) [compound 830034]  30%
33. 830033 (antisense kT*k[5mC]*k[5mC]*d[5mC]*d[5mC]*d[5mC]*dT*dT*dG*dG*dA*dA*dA*kT*kG*kG) [compound 830033]  28%
34. 830020 (antisense kG*kA*kA*dA*dG*dG*d[5mC]*d[5mC]*d[5mC]*dA*dA*d[5mC]*dA*kG*k[5mC]*k[5mC]) [compound 830020]  23%
35. 830014 (antisense kG*kG*kT*dG*d[5mC]*d[5mC]*dA*dG*dT*d[5mC]*dT*d[5mC]*dA*kA*kA*kT) [compound 830014]  22%
36. 830058 (kG*kG*kT*dA*dG*dG*d[5mC]*dA*d[5mC]*dA*dT*d[5mC]*dA*kT*k[5mC]*kA; antisense) [compound 830058]  22%
37. 830059 (kG*kG*kG*d[5mC]*d[5mC]*dA*d[5mC]*d[5mC]*d[5mC]*dA*dG*dT*dG*kA*kG*k[5mC]; antisense) [compound 830059]  22%
38. 830062 (k[5mC]*k[5mC]*kT*dA*d[5mC]*d[5mC]*dA*d[5mC]*d[5mC]*d[5mC]*d[5mC]*dT*dG*kT*kG*kA; antisense) [compound 830062]  17%
39. 830019 (antisense kA*kG*kG*d[5mC]*d[5mC]*d[5mC]*dA*dA*d[5mC]*dA*dG*d[5mC]*d[5mC]*kA*kA*kA) [compound 830019]  16%
40. 830018 (antisense k[5mC]*k[5mC]*k[5mC]*dA*dA*d[5mC]*dA*dG*d[5mC]*d[5mC]*dA*dA*dA*kA*k[5mC]*kG) [compound 830018]  10%
41. 830060 (kT*kA*k[5mC]*d[5mC]*dA*d[5mC]*d[5mC]*d[5mC]*d[5mC]*dT*dG*dT*dG*kA*kA*kG; antisense) [compound 830060]  8%
42. 830061 (k[5mC]*kT*kA*d[5mC]*d[5mC]*dA*d[5mC]*d[5mC]*d[5mC]*d[5mC]*dT*dG*dT*kG*kA*kA; antisense) [compound 830061]  4%
43. 830026 (antisense kT*kT*kT*dT*dG*dT*dA*dA*dA*dT*d[5mC]*dG*dA*kA*kA*kG) [compound 830026]  0%

same assay, conditions: SMAD7 mRNA, Hep3B cells, electroporation with 10,000 nM antisense oligonucleotide, approximately 24 hours, primer probe set RTS5062, relative to untreated control cells

In order of falling “% Inhibition” value:
1. 830013 (antisense kG*kT*kG*d[5mC]*d[5mC]*dA*dG*dT*d[5mC]*dT*d[5mC]*dA*dA*kA*kT*kG) [compound 830013]  55%
2. 830009 (antisense kG*kT*kG*dT*dT*dA*dA*dA*dG*d[5mC]*dT*dG*dA*kG*k[5mC]*k[5mC]) [compound 830009]  52%
3. 830002 (kT*kA*kG*d[5mC]*d[5mC]*d[5mC]*dA*dA*d[5mC]*dT*dG*dT*dT*kT*kG*kT; antisense) [compound 830002]  43%
4. 830012 (antisense kG*k[5mC]*k[5mC]*dA*dG*dT*d[5mC]*dT*d[5mC]*dA*dA*dA*dT*kG*kG*kG) [compound 830012]  37%
5. 830011 (antisense k[5mC]*k[5mC]*kA*dG*dT*d[5mC]*dT*d[5mC]*dA*dA*dA*dT*dG*kG*kG*k[5mC]) [compound 830011]  25%
6. 830004 (antisense kT*kA*kA*dA*dG*dG*d[5mC]*d[5mC]*d[5mC]*dA*dG*d[5mC]*d[5mC]*kA*kT*kG) [compound 830004]  24%
7. 830005 (antisense k[5mC]*kT*k[5mC]*dA*d[5mC]*d[5mC]*dA*dG*dT*dT*dG*dG*dT*kT*kT*kG) [compound 830005]  13%
8. 830003 (antisense kG*kG*k[5mC]*dA*dT*dT*d[5mC]*dT*dT*dT*dT*dA*dG*k[5mC]*k[5mC]*k[5mC]) [compound 830003]  0%
9. 830006 (antisense kA*k[5mC]*kT*d[5mC]*dA*d[5mC]*d[5mC]*dA*dG*dT*dT*dG*dG*kT*kT*kT) [compound 830006]  0%
10. 830007 (antisense k[5mC]*kT*kA*d[5mC]*dT*d[5mC]*dA*d[5mC]*d[5mC]*dA*dG*dT*dT*kG*kG*kT) [compound 830007]  0%
11. 830008 (antisense kT*kA*kG*dA*dG*dG*d[5mC]*dT*d[5mC]*dT*dA*dT*dT*kT*k[5mC]*kT) [compound 830008]  0%
